{"source": "patent US20240156800A1", "about": "“EP300 DEGRADER AND USES THEREOF IN NEUROBLASTOMA” (DANA-FARBER CANCER INSTITUTE, INC., priority 2021, published 2024)", "key": {"EP300": {"target": "T1, EP300 (Homo sapiens, UniProt Q09472)", "T1 construct": "Cells growing in culture were lysed for whole cell lysates; endogenous in cells; host or cells: Kelly, NGP, SIMA, BE2C neuroblastoma cells; Kelly xenografts in NSG mice", "T1 sequence (Q09472 whole entry)": "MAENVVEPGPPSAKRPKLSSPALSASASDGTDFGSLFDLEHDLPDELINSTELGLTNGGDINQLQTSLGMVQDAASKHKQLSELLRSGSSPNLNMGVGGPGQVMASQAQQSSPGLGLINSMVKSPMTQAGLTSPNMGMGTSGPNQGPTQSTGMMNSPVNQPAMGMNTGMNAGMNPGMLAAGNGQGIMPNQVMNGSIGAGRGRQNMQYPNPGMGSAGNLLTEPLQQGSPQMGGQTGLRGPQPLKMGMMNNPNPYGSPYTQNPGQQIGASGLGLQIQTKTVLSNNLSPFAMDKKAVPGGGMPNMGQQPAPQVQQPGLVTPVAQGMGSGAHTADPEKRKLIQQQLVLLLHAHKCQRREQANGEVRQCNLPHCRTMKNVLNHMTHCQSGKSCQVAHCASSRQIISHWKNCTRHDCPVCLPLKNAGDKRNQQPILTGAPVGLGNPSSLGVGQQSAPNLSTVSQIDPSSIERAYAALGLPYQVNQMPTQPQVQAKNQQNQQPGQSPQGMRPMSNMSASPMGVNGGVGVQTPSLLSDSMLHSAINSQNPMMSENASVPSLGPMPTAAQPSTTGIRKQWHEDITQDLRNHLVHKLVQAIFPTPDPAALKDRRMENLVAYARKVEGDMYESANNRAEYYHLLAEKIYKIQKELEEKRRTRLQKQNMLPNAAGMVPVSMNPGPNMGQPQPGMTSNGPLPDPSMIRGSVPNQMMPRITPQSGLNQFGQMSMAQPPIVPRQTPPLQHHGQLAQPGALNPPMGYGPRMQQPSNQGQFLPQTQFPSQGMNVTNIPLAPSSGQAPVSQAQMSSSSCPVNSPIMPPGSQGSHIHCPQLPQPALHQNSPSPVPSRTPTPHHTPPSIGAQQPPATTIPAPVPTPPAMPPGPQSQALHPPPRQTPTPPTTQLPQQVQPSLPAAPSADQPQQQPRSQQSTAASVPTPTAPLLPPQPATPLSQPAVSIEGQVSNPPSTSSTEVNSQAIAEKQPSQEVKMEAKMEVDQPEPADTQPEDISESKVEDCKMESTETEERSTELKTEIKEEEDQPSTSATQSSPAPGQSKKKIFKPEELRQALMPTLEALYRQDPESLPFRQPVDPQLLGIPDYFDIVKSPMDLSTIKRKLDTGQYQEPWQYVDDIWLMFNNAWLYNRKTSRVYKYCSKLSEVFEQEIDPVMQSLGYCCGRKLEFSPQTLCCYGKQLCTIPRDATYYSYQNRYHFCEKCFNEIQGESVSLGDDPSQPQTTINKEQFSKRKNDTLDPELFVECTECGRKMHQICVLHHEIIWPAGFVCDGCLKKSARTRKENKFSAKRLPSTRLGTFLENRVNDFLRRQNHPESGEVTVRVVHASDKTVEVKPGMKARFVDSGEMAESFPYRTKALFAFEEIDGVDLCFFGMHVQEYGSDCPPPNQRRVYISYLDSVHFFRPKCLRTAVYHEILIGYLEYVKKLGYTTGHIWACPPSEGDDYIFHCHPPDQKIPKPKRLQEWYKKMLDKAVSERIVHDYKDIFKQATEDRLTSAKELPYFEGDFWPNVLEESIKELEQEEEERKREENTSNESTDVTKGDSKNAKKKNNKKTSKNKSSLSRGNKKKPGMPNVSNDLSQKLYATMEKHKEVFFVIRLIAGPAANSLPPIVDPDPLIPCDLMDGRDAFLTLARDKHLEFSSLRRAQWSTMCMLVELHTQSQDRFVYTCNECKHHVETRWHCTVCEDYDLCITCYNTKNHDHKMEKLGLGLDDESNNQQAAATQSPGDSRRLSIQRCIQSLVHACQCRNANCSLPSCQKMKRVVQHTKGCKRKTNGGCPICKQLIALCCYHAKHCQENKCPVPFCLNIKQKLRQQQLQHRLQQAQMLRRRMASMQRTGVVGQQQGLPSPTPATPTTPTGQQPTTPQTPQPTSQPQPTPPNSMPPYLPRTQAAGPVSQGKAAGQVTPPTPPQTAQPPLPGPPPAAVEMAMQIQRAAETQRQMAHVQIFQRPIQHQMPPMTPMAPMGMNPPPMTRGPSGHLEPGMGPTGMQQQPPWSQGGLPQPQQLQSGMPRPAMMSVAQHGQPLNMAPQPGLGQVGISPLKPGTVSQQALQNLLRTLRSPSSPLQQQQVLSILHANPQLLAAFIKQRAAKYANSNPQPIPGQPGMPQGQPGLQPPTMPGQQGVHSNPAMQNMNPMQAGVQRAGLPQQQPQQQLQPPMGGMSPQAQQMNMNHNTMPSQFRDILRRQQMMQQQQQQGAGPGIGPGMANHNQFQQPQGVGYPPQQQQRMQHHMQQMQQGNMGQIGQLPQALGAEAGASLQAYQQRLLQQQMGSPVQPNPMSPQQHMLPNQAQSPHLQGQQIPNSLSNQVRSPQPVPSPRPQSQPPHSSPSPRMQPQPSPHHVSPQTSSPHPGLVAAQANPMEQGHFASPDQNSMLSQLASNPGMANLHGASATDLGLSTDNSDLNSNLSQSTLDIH", "assay": "SILAC mass spectrometry of the nuclear proteome of Kelly cells (EP300)", "type": "cell-based", "conditions": "500 nM, 24 h, nuclear extract, p=3.3×10^−5", "protocol": "Because JQAD1 interacted preferentially with both EP300 and CRBN, whether JQAD1 preferentially induces degradation of EP300 compared to CBP in MYCN-amplified neuroblastoma cells was examined. […] To further examine the specificity of JQAD1 for EP300, an analysis of the effects of JQAD1 in stable isotope labeling by amino acids in cell culture (SILAC)-labelled Kelly cells was performed (FIG. 3F). Kelly cells were cultured with SILAC media containing heavy or light-labelled arginine and lysine. Heavy labelled cells were treated with 500 nM JQAD1, and light-labelled cells treated with dimethyl sulfoxide (DMSO) for 24 h, prior to nuclear extraction and protein lysis. […] Protein abundance was then analyzed by mass spectrometry, to determine global changes in the nuclear proteome. […] To expand upon these findings, three NB cell lines, Kelly, NGP and SIMA, which have high levels of CRBN (e.g., protein or mRNA) (FIG. 8C), were treated with JQAD, and the effects on specific proteins were measured by western blotting. […] Peptides were detected, isolated, and fragmented to produce a tandem mass spectrum of specific fragment ions for each peptide. Peptide sequences and protein identity were determined by matching protein databases with the acquired fragmentation pattern by Sequest® (Thermo Fisher Scientific) (Eng et al. J. Am. Soc. Mass Spectrom. 5:976-89 (1994)). […]"}, "[1]": {"test_system": "Kelly-Cas9 control or CRBN knockout cells", "assay": "CellTiter-Glo assay of Kelly-Cas9 control or CRBN knockout cells", "type": "cell-based, human", "conditions": "range of doses, seven days", "protocol": "Cells were infected with lentiviruses encoding sgRNAs or treated with compounds as described. Colony assays were performed by replating cells at 500 cells per well in 6-well dishes and grown in regular growth media for 10 d before 100% methanol fixation, 0.05% crystal violet staining, and quantitation. Experiments were completed in triplicate; data shown are the average of three independent experiments. Cell Titer-Glo® assay was performed as per the manufacturer's instructions (Promega®). Briefly, 1000 cells/well were plated into 96-well plates and treated with a range of compound dosing. Cell viability was measured at the noted time points based on luminescence by the Cell Titer-Glo® assay (Promega®) and read on an Envision 2104 (PerkinElmer®, USA) according to the manufacturer's protocol.\nsgRNAs targeting individual genes were subcloned by standard methodologies within pLKO.5-EFGP. Kelly, SIMA, BE2C, and NGP cells were infected with lenticas9 followed by blasticidin selection. Stable expression of cas9 was established by western blotting of protein lysates using cas9 antibody (Cell Signaling Technology®). Following infection of pLKO.5-EGFP-sgRNA lentivirus, cells were cultured for the identified times prior to evaluation. BE2C cells were infected with pLC-zsgreen or pLC-CRBN lentiviruses and selected using 500 μg/mL hygromycin (Invitrogen™)"}}}
{"smiles": "C[C@H](N(Cc1ccc(F)cc1)C(=O)CN1C(=O)O[C@@]2(CCc3cc(NC(=O)CCCCCCCCCCCNc4ccc5c(c4)C(=O)N(C4CCC(=O)NC4=O)C5=O)ccc32)C1=O)C(F)(F)F", "note": "(stereo partly drawn) [JQAD1, 12-((2-(2,6-dioxopiperidin-3-yl)-1,3-dioxoisoindolin-5-yl)amino)-N-((R)-3′-(2-((4-fluorobenzyl)((S)-1,1,1-trifluoropropan-2-yl)amino)-2-oxoethyl)-2′,4′-dioxo-2,3-dihydrospiro[indene-1,5′-oxazolidin]-5-yl)dodecanamide]", "values": [{"measurement": "EP300 protein abundance", "setting": "EP300", "result": "significantly decreased"}, {"measurement": "growth of CRBN-knockout Kelly cells", "setting": "[1]", "result": "resistant"}, {"measurement": "growth of control-edited Kelly cells", "setting": "[1]", "result": "potently killed"}]}
